Measurements as given in ChEMBL document CHEMBL1201862, “PubChem BioAssay data set” (2004).
Active and inactive are the calls of the source.

Experiments:
[1] = biological target: Prothrombin (Homo sapiens, UniProt P00734); experiment: Thrombin 1536 HTS Dose Response Confirmation. [Related pubchem assays: 1046 (Thrombin 1536 HTS; hits were confirmed in this assay)]; type: functional
[2] = cells; type: functional, cell-based
[3] = cells; type: functional, cell-based; remark: listed apart in the source
[4] = biological target: T1, Fatty acid synthase (Homo sapiens, UniProt P49327); experiment: FAS thioesterase domain inhibitors, dose response, biochemical, endpoint fluorescence intensity, uHTS hits (AID 624327); type: functional;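 also: fluorescence from hydrolysis of an O-methyl fluorescein acyl ester substrate by the enzyme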
[5] = biological target: T1, Fatty acid synthase; experiment: FAS thioesterase domain inhibitors, dose response, biochemical, kinetic fluorescence intensity (AID 624326); type: functional;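 also: rate of fluorescence rise from hydrolysis of a fluorogenic O-methyl fluorescein ester substrate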
[6] = biological target: DNA dC->dU-editing enzyme APOBEC-3G (Homo sapiens, UniProt Q9HC16); experiment: Dose Response confirmation of small molecule APOBEC3G DNA Deaminase Inhibitors via a fluorescence-based single-stranded DNA deaminase assay. [Related pubchem assays (depositor defined):AID493012, AID493028]; type: functional
[7] = biological target: Eukaryotic translation initiation factor 4E (Mus musculus, UniProt P63073); experiment: eIF4E–eIF4G protein interaction inhibitors, dose response, biochemical, TR-FRET (AID 855); type: functional;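 also: potency for disrupting eIF4E binding to eIF4GI seen as loss of FRET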
[8] = biological target: T2, DNA repair protein RAD52 homolog (Homo sapiens, UniProt P43351); type: functional, biochemical
T2 sequence (P43351 whole entry): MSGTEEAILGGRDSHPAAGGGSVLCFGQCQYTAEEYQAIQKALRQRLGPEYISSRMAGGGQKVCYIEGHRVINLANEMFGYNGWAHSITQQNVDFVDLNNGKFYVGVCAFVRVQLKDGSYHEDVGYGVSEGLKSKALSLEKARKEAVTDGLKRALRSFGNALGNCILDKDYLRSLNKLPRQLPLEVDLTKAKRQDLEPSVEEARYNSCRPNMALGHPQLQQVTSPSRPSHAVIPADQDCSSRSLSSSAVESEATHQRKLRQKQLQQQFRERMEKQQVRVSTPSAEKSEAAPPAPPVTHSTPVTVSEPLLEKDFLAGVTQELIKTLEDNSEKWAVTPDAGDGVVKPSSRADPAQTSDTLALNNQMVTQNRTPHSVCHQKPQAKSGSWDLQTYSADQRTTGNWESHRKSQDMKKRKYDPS

[9] = ZM109 Env clade C HIV-1 fusion inhibitors, dose response, HeLa effector, CEM target cells, luciferase, cherry-pick (AID 652058); type: functional, cell-based
[10] = inhibitors of HIV Env-driven cell fusion, dose response, cherry-pick (AID 652057); type: functional, cell-based
[11] = inhibitors of clade B AD8 Env fusion, dose response, cell-based, cherry-pick (AID 652062); type: functional;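 also: luciferase signal from cell-cell fusion driven by HIV-1 clade B AD8 Env; potency is for inhibitors of fusion seen as a drop in luminescence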
[12] = biological target: Beta-galactosidase (Escherichia coli, UniProt Q8VNN2); experiment: Dose response counterscreen for EBI2 assay utilizing the enzyme, b-galactosidase.; type: functional
[13] = HeLa cell cytotoxicity, dose response, cytotoxicity control for MgcRacGAP inhibitor project (AID 624300); type: functional
[14] = biological target: T3, Rac GTPase-activating protein 1 (Homo sapiens, UniProt Q9H0H5); experiment: MgcRacGAP GTPase-activating activity inhibitors, confirmation, biochemical, ADP Hunter fluorescence, primary and confirmatory (AID 624330); type: functional
T3 sequence (Q9H0H5 whole entry): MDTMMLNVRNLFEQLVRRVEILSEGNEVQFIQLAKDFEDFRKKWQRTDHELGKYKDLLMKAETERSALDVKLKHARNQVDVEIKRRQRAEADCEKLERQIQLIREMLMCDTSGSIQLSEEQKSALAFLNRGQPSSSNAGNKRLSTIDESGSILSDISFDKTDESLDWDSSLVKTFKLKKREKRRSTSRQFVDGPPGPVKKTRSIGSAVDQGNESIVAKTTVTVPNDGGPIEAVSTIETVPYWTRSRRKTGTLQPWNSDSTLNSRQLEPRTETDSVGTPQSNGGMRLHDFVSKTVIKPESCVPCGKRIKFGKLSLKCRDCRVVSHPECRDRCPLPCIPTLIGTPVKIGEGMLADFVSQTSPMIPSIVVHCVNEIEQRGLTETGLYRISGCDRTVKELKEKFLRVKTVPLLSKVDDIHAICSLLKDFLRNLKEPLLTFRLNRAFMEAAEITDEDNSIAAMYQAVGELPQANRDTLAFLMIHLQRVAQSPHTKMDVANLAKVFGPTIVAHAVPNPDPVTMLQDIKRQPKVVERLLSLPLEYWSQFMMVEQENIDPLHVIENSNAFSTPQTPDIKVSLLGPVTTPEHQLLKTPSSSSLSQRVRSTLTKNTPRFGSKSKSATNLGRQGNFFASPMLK

[15] = biological target: T4, Galanin receptor type 3 (Homo sapiens, UniProt O60755); experiment: Fluorescence-based cell-based primary high throughput dose response assay to identify antagonists of the Galanin Receptor 3 (GalR3).; type: functional
T4 sequence (O60755 whole entry): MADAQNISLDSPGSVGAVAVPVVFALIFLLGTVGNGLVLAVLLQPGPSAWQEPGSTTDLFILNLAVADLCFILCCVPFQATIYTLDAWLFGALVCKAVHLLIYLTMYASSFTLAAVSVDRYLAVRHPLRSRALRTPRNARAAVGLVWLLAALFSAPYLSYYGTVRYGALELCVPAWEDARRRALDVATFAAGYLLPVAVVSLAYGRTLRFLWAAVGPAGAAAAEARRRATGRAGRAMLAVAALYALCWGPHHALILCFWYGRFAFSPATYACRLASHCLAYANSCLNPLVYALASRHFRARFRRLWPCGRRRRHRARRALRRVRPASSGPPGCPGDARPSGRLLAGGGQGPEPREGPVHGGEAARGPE

[16] = biological target: Cytochrome P450 2D6 (Homo sapiens, UniProt P10635);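 also: CYP2D6 member of a cytochrome P450 panel assay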
[17] = cells; type: functional, cell-based; details: HEK-CNG

T1 sequence (P49327 whole entry, the tested form may be a part): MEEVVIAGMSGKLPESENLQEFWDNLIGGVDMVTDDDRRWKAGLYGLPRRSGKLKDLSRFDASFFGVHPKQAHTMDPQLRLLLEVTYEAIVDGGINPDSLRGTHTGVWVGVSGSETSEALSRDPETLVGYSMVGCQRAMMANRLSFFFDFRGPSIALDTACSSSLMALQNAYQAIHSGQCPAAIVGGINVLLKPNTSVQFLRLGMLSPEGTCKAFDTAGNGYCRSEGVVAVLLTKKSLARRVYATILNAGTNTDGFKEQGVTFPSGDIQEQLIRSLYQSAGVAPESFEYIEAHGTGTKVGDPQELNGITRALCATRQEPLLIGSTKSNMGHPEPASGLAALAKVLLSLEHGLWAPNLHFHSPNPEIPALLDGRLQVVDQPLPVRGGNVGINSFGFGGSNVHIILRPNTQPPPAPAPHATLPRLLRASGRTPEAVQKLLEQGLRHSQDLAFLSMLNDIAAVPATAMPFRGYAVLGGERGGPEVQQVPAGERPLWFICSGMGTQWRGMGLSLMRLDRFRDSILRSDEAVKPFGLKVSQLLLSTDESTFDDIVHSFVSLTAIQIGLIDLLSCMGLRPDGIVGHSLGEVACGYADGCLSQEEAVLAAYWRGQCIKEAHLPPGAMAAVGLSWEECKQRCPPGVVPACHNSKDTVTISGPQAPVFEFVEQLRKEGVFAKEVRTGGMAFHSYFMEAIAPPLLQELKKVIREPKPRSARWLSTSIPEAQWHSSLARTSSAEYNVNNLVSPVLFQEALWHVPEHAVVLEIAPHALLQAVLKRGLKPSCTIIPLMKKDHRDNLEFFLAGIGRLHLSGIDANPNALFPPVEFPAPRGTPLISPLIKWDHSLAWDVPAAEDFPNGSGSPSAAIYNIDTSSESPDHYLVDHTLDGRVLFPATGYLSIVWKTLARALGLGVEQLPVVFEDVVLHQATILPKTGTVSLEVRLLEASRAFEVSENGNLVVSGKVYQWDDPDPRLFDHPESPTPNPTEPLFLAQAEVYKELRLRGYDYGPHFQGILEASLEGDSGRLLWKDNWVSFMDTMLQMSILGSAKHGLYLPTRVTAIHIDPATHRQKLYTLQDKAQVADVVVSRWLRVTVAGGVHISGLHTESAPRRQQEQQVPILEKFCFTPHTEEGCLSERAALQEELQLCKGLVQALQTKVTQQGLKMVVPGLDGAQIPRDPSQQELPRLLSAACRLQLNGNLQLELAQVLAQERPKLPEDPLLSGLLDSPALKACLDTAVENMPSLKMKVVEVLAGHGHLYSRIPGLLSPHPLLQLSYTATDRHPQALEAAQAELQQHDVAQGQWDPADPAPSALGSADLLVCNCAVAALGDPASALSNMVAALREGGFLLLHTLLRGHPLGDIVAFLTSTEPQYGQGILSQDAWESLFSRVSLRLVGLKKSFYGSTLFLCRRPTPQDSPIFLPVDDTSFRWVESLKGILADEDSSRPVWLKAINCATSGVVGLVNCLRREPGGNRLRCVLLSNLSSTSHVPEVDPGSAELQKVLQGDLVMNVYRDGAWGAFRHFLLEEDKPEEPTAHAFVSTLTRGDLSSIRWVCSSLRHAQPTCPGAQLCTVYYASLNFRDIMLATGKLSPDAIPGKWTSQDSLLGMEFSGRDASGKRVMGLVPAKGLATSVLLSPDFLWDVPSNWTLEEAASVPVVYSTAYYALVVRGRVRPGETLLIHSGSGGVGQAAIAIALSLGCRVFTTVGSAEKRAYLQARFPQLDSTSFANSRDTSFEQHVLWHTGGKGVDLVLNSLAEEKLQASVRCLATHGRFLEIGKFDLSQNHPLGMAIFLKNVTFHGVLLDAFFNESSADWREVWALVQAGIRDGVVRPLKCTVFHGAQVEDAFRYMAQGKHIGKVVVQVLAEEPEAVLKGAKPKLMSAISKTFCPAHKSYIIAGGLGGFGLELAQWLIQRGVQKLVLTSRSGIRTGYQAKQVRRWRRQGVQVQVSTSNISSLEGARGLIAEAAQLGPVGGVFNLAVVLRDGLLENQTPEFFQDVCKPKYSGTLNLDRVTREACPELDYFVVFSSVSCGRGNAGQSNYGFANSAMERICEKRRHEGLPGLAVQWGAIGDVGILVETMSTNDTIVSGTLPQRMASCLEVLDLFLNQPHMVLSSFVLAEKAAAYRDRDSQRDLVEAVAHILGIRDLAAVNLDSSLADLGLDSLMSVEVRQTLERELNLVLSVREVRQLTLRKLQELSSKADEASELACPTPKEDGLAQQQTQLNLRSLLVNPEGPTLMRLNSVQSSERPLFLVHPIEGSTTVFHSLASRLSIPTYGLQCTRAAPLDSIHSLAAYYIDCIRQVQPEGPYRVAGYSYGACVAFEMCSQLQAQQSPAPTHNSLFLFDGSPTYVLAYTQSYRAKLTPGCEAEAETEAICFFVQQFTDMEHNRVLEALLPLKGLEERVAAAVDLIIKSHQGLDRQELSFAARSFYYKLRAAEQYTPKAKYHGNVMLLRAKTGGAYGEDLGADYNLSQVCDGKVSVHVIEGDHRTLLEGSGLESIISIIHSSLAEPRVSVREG
Sequence of DNA dC->dU-editing enzyme APOBEC-3G (Q9HC16 whole entry): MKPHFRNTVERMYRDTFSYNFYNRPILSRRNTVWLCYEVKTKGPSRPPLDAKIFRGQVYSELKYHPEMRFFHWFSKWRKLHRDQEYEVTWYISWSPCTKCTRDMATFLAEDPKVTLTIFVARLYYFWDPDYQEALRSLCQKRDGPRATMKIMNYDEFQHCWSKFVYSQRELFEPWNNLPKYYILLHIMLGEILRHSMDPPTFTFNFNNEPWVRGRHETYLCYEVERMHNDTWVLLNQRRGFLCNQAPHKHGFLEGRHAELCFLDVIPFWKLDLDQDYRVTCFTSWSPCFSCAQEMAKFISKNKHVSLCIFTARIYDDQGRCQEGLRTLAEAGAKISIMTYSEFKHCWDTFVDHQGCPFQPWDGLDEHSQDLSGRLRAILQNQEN
Sequence of Cytochrome P450 2D6 (P10635 whole entry): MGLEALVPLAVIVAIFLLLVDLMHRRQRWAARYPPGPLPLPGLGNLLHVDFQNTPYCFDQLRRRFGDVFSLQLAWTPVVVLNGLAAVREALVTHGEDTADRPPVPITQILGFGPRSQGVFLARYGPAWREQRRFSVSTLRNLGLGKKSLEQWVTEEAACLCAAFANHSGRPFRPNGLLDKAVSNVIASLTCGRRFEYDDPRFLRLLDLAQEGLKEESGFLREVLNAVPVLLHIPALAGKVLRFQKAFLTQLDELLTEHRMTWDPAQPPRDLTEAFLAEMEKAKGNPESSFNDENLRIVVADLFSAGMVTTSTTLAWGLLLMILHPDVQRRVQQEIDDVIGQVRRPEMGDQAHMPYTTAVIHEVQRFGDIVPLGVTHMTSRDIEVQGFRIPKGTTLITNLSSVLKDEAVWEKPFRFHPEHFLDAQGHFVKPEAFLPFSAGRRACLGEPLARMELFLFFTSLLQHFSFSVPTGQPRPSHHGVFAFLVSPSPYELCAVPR
Sequence of Beta-galactosidase (Q8VNN2 whole entry): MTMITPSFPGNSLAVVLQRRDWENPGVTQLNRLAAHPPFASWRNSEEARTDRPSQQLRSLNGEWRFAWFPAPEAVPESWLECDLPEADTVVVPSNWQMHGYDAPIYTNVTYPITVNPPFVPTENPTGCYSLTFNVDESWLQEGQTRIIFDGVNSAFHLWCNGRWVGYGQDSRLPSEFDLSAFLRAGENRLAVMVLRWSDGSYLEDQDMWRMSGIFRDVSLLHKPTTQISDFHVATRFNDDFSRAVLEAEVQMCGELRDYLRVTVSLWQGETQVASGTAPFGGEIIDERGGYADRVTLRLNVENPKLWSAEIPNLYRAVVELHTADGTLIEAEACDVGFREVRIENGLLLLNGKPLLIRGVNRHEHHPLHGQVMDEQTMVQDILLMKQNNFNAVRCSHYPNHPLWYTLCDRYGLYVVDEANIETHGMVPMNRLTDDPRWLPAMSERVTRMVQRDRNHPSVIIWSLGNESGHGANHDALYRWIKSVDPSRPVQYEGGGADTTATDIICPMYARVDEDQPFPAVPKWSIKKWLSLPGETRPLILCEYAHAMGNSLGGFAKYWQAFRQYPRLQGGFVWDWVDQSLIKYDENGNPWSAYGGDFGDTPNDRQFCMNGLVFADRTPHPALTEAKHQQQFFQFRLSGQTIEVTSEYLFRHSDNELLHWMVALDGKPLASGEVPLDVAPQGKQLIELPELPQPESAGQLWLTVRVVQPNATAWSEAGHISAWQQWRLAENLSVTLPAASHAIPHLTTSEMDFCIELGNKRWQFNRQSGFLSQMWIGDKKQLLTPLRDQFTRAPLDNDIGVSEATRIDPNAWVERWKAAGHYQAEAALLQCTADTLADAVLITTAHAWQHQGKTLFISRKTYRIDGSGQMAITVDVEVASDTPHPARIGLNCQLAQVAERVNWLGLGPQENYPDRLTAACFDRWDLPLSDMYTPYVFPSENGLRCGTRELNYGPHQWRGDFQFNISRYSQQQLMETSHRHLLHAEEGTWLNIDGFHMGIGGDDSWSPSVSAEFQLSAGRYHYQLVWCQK
Sequence of Eukaryotic translation initiation factor 4E (P63073 whole entry): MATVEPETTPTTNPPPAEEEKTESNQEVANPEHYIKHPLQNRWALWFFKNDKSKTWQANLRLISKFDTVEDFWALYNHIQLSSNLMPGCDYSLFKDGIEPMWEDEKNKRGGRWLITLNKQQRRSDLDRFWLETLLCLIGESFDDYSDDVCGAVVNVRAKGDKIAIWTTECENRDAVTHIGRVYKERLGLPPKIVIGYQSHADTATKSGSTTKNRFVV

In the case of `CSC1=N/C(=C\c2ccc(C)o2)C(=O)S1`, the IC50 [1] is reported as > 50 µM (not active).
For `O=[N+]([O-])c1[nH]cnc1/C=C/c1ccccc1`, the EC50 [2] was > 29.9 µM (inactive) and the IC50 [3] was > 29.9 µM (inactive).
For `CCS(=O)(=O)c1ccc2oc(Nc3ccc(C(C)C)cc3)nc2c1`, the IC50 [4] was 22.3 µM (inactive), the IC50 [5] was 12.6 µM (active) and the IC50 [6] was 20.7 µM (active). The IC50 [7] was > 64 µM (inactive).
For `Cc1c(C(=O)N2CCc3ccccc3C2)oc2ccc(S(=O)(=O)N3CC(C)CC(C)C3)cc12` (configuration not stated), the EC50 [2] was > 29.9 µM (inactive) and the IC50 [3] was > 29.9 µM (inactive).
In the case of `Cc1c(C)n(C)c2ccc(C(=O)NCCCN3CCN(C)CC3)cc12`, the AC50 [8] is reported as 7.04 µM (active).
In the case of `COc1ccc(NC(=O)Nc2ccc3c(c2)C(=O)N([C@@H](C)CO)C[C@H](C)[C@H](CN(C)Cc2ccncc2)OCCCC[C@H](C)O3)cc1`, the AC50 [9] is reported as 412 nM (active), the AC50 [10] is reported as 541 nM (active) and the AC50 [11] is reported as 12.7 µM (active).
With `Cc1noc(C)c1S(=O)(=O)N(C)C[C@@H]1Oc2ccc(NC(=O)Nc3cccc4ccccc34)cc2CC(=O)N([C@@H](C)CO)C[C@@H]1C` the AC50 [9] was 2440 nM (active), the AC50 [10] was 4830 nM (active) and the AC50 [11] was 9.04 µM (active).
For `COc1cccc(/C=C/C(=O)N2CCN(S(=O)(=O)c3ccccc3)CC2)c1`, the IC50 [12] was > 80 µM (inactive).
In the case of `COc1cc2c(cc1OC)C(/C=C/c1ccco1)=NCC2`, the CC50 [13] is reported as 100 µM (active) and the IC50 [14] is reported as 42.3 µM (active).
In the case of `CO/C(O)=C1\C(C)=NC2=C(C(=O)CCC2)C1c1cn(Cc2ccc(Cl)cc2Cl)nc1-c1ccccc1` (configuration not stated), the IC50 [15] is reported as 3.85 µM (active), the AC50 [16] is reported as 3.55 µM (inconclusive) and the EC50 [17] is reported as > 29.9 µM (inactive).
